In patent publication US9409966B2, “Glucagon-like peptide-1 derivatives and their pharmaceutical use” (priority 2007, dated 2016):
*1 amine or outer side, *2 acyl side, *3 side chain or, on linkers, in order; H or OH if unused. Where a SMILES comes first, the peptide text is derived from it. Side-chain parts run from the residue outwards. [ ]: non-standard residue; d: D form. The star is where a group is joined. X2 = O=C(O)CCCCCCCCCCCCCCCCC(=O)N[C@@H](CCC(=O)NCCOCCOCC(=O)NCCOCCOCC(=O)N[C@@H](CCCCN*)C(=O)O)C(=O)O; C20 diacid = O=C(O)CCCCCCCCCCCCCCCCCCC(=O)*; C18 diacid = O=C(O)CCCCCCCCCCCCCCCCC(=O)*; γGlu = O=C(O)[C@H](CCC(=O)[*:2])N[*:1]; βAsp = O=C(O)[C@H](CC(=O)[*:2])N[*:1]; NTA = O=C(O)CN(CC(=O)O)CC(=O)*; Dap = NC[C@H](N)C(=O)O; AEEA = NCCOCCOCC(=O)O; Aib = CC(C)(N)C(=O)O; Inp = O=C(O)C1CCNCC1

Target: human serum albumin (HSA) (Homo sapiens, UniProt P02768)
Assay: Albumin binding affinity, competition scintillation proximity assay (SPA)
Protocol: Streptavidin-SPA beads (GE Healthcare RPNQ0009) were incubated with biotinylated HSA for 5 hours. The beads were washed with buffer to remove unbound HSA. […] After 20 hours of gentle rocking at room temperature the plates were centrifuged and counted on a TopCounter.

human serum albumin (HSA), sequence (P02768 25-609): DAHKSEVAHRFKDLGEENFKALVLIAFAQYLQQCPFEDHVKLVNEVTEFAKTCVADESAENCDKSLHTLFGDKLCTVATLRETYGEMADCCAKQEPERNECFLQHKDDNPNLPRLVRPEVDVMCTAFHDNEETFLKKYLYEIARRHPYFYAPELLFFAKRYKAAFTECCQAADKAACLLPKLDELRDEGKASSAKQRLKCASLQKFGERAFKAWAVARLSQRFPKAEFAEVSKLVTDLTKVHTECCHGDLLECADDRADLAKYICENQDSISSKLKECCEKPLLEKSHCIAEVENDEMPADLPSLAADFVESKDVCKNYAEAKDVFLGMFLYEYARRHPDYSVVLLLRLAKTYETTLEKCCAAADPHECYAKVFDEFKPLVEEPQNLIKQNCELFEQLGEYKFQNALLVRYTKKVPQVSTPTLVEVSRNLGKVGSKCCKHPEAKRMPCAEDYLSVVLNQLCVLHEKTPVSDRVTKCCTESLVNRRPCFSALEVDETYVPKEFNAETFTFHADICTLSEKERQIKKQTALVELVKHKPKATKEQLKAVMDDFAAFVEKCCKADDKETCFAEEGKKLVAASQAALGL

| SMILES | EC50 |
| --- | --- |
| CC[C@H](C)[C@H](NC(=O)[C@H](Cc1ccccc1)NC(=O)[C@H](CCC(=O)O)NC(=O)[C@H](CCCNC(=N)N)NC(=O)[C@H](C)NC(=O)[C@H](C)NC(=O)[C@H](CCC(N)=O)NC(=O)[C@H](CCC(=O)O)NC(=O)[C@H](CCC(=O)O)NC(=O)[C@H](CC(C)C)NC(=O)[C@H](Cc1ccc(O)cc1)NC(=O)[C@H](CO)NC(=O)[C@H](CO)NC(=O)[C@@H](NC(=O)[C@H](CC(=O)O)NC(=O)[C@H](CO)NC(=O)[C@@H](NC(=O)[C@H](Cc1ccccc1)NC(=O)[C@@H](NC(=O)CNC(=O)[C@H](CCC(=O)O)NC(=O)C(C)(C)NC(=O)[C@@H](N)Cc1c[nH]cn1)[C@@H](C)O)[C@@H](C)O)C(C)C)C(=O)N[C@@H](C)C(=O)N[C@@H](Cc1c[nH]c2ccccc12)C(=O)N[C@@H](CC(C)C)C(=O)N[C@H](C(=O)N[C@@H](CCCNC(=N)N)C(=O)NCC(=O)N[C@@H](CCCNC(=N)N)C(=O)NCCCC[C@H](NC(=O)COCCOCCNC(=O)COCCOCCNC(=O)CC[C@H](NC(=O)CCCCCCCCCCCCCCCCC(=O)O)C(=O)O)C(=O)O)C(C)C [Example 28, N-alpha37-[2-(2-{2-[2-(2-{2-[(S)-4-Carboxy-4-(17-carboxy-heptadecanoylamino)-butyrylamino]-ethoxy}-ethoxy)-acetylamino]-ethoxy}-ethoxy)-acetyl] [Aib8,Glu22,Arg26,Arg34,epsilon-Lys37]GLP-1-(7-37)peptide] (H-H[Aib]EGTFTSDVSSYLEEQAAREFIAWLVRGR-X2) | 200 to 400 nM |
| CC[C@H](C)[C@H](NC(=O)[C@H](Cc1ccccc1)NC(=O)[C@H](CCC(=O)O)NC(=O)[C@H](CCCNC(=N)N)NC(=O)[C@@H](NC(=O)[C@H](C)NC(=O)[C@H](CCC(N)=O)NC(=O)[C@H](CCC(=O)O)NC(=O)[C@H](CCC(=O)O)NC(=O)[C@H](CC(C)C)NC(=O)[C@H](Cc1ccc(O)cc1)NC(=O)[C@H](CO)NC(=O)[C@H](CO)NC(=O)[C@@H](NC(=O)[C@H](CC(=O)O)NC(=O)[C@H](CO)NC(=O)[C@@H](NC(=O)[C@H](Cc1ccccc1)NC(=O)[C@@H](NC(=O)CNC(=O)[C@H](CCC(=O)O)NC(=O)C(C)(C)NC(=O)[C@@H](N)Cc1c[nH]cn1)[C@@H](C)O)[C@@H](C)O)C(C)C)C(C)C)C(=O)N[C@@H](C)C(=O)N[C@@H](CCCCNC(=O)COCCOCCNC(=O)COCCOCCNC(=O)CC[C@H](NC(=O)CCCCCCCCCCCCCCCCC(=O)O)C(=O)O)C(=O)N[C@@H](CC(C)C)C(=O)N[C@H](C(=O)N[C@@H](CCCCN)C(=O)N[C@@H](CCCCN)C(=O)N[C@@H](CCCCN)C(N)=O)C(C)C [Example 36, N-epsilon31-[2-(2-{2-[2-(2-{2-[(S)-4-Carboxy-4-(17-carboxyheptadecanoylamino)butyrylamino]ethoxy}ethoxy)acetylamino]ethoxy}ethoxy)acetyl][Aib8,Glu22,Val25,Arg26,Lys31,Lys35,Lys36]GLP-1-(7-36) amide] (H-H[Aib]EGTFTSDVSSYLEEQAVREFIAK([AEEA-AEEA-γGlu-C18 diacid])LVKKK-NH2) | 400 to 800 nM |

The remaining lines, values ahead:

| EC50 | SMILES |
| --- | --- |
| 200 to 400 nM | CC[C@H](C)[C@H](NC(=O)[C@H](Cc1ccccc1)NC(=O)[C@H](CCC(=O)O)NC(=O)[C@H](CCCNC(=N)N)NC(=O)[C@H](C)NC(=O)[C@H](C)NC(=O)[C@H](CCC(N)=O)NC(=O)[C@H](CCC(=O)O)NC(=O)[C@H](CCC(=O)O)NC(=O)[C@H](CC(C)C)NC(=O)[C@H](Cc1ccc(O)cc1)NC(=O)[C@H](CO)NC(=O)[C@H](CO)NC(=O)[C@@H](NC(=O)[C@H](CC(=O)O)NC(=O)[C@H](CO)NC(=O)[C@@H](NC(=O)[C@H](Cc1ccccc1)NC(=O)[C@@H](NC(=O)CNC(=O)[C@H](CCC(=O)O)NC(=O)C(C)(C)NC(=O)[C@@H](N)Cc1c[nH]cn1)[C@@H](C)O)[C@@H](C)O)C(C)C)C(=O)N[C@@H](C)C(=O)N[C@@H](CCCCNC(=O)COCCOCCNC(=O)COCCOCCNC(=O)C[C@H](NC(=O)C1CCN(C(=O)CCCCCCCCCCCCCCCCCCC(=O)O)CC1)C(=O)O)C(=O)N[C@@H](CC(C)C)C(=O)N[C@H](C(=O)N[C@@H](CCCNC(=N)N)C(=O)NCC(=O)N[C@@H](CCCNC(=N)N)C(=O)NCC(=O)O)C(C)C [Example 6, N-epsilon31-(2-{2-[2-(2-{2-[2-((S)-3-Carboxy-3-{[1-(19-carboxy-nonadecanoyl)piperidine-4-carbonyl]amino}propionylamino)ethoxy]ethoxy}acetylamino)ethoxy]ethoxy}acetyl)[Aib8,Glu22,Arg26,Lys31,Arg34]GLP-1-(7-37)] (H-H[Aib]EGTFTSDVSSYLEEQAAREFIAK([AEEA-AEEA-βAsp-Inp-C20 diacid])LVRGRG-OH) |
| 100 to 150 nM | CC[C@H](C)[C@H](NC(=O)[C@H](Cc1ccccc1)NC(=O)[C@H](CCC(=O)O)NC(=O)[C@H](CCCNC(=N)N)NC(=O)[C@H](C)NC(=O)[C@H](C)NC(=O)[C@H](CCC(N)=O)NC(=O)[C@H](CCC(=O)O)NC(=O)[C@H](CCC(=O)O)NC(=O)[C@H](CC(C)C)NC(=O)[C@H](Cc1ccc(O)cc1)NC(=O)[C@H](CO)NC(=O)[C@H](CO)NC(=O)[C@@H](NC(=O)[C@H](CC(=O)O)NC(=O)[C@H](CO)NC(=O)[C@@H](NC(=O)[C@H](Cc1ccccc1)NC(=O)[C@@H](NC(=O)CNC(=O)[C@H](CCC(=O)O)NC(=O)C(C)(C)NC(=O)[C@@H](N)Cc1c[nH]cn1)[C@@H](C)O)[C@@H](C)O)C(C)C)C(=O)N[C@@H](C)C(=O)N[C@@H](Cc1c[nH]c2ccccc12)C(=O)N[C@@H](CC(C)C)C(=O)N[C@H](C(=O)N[C@@H](CCCNC(=N)N)C(=O)NC(C)(C)C(=O)N[C@@H](CCCNC(=N)N)C(=O)N[C@@H](CCCCNC(=O)COCCOCCNC(=O)COCCOCCNC(=O)CC[C@H](NC(=O)CCCCCCCCCCCCCCCCC(=O)O)C(=O)O)C(=O)O)C(C)C [Example 33, N-epsilon37-[2-(2-{2-[2-(2-{2-[(S)-4-carboxy-4-(17-carboxy-heptadecanoylamino)-butyrylamino]-ethoxy}-ethoxy)-acetylamino]-ethoxy}-ethoxy)-acetyl]-[Aib8,Glu22, Arg26,Arg34, Aib35, Lys37]GLP-1-(7-37)] (H-H[Aib]EGTFTSDVSSYLEEQAAREFIAWLVR[Aib]RK([AEEA-AEEA-γGlu-C18 diacid])-OH) |
| 150 to 200 nM | CC[C@H](C)[C@H](NC(=O)[C@H](Cc1ccccc1)NC(=O)[C@H](CCC(=O)O)NC(=O)[C@H](CCCNC(=N)N)NC(=O)[C@@H](NC(=O)[C@H](C)NC(=O)[C@H](CCC(N)=O)NC(=O)[C@H](CCC(=O)O)NC(=O)[C@H](CCC(=O)O)NC(=O)[C@H](CC(C)C)NC(=O)[C@H](Cc1ccc(O)cc1)NC(=O)[C@H](CO)NC(=O)[C@H](CO)NC(=O)[C@@H](NC(=O)[C@H](CC(=O)O)NC(=O)[C@H](CO)NC(=O)[C@@H](NC(=O)[C@H](Cc1ccccc1)NC(=O)[C@@H](NC(=O)CNC(=O)[C@H](CCC(=O)O)NC(=O)C(C)(C)NC(=O)[C@@H](N)Cc1c[nH]cn1)[C@@H](C)O)[C@@H](C)O)C(C)C)C(C)C)C(=O)N[C@@H](C)C(=O)N[C@@H](CCCCNC(=O)COCCOCCNC(=O)COCCOCCNC(=O)CC[C@H](NC(=O)CCCCCCCCCCCCCCCCC(=O)O)C(=O)O)C(=O)N[C@@H](CC(C)C)C(=O)N[C@H](C(=O)N[C@@H](CNC(=O)CN(CC(=O)O)CC(=O)O)C(N)=O)C(C)C [Example 37, N-epsilon31-{2-(2-{2-[2-(2-{2-[4-Carboxy-4-(17-carboxy-heptadecanoylamino)butyrylamino]ethoxy}ethoxy)acetylamino]ethoxy}ethoxy)acetyl}-N-beta34-(2-(bis-carboxymethylamino)acetyl)[Aib8,Glu22,Val25,Arg26,Lys31, Dap34] GLP-1(7-34) amide] (H-H[Aib]EGTFTSDVSSYLEEQAVREFIAK([AEEA-AEEA-γGlu-C18 diacid])LV[Dap](NTA)-NH2) |
